Key:
MDA-MB-231 = assay: Cell viability assay (MTS), antiproliferative activity; type: cell-based; conditions: Homo sapiens, 72 h
Method: (§1) To preliminarily profile the bioactivity of these compounds, we adopted a streamlined approach which involved screening against KDM6A at two concentrations and evaluating antiproliferative activity against three representative cell lines – MCF-7 (ER(+) BCa), MDA-MB-231 (TNBC BCa) and Vero (a non-transformed cell line as control).
(§2) The In vitro proliferation assay was performed as reported previously[15],[16]. Detailed description of the protocol used is included in the Supplementary Information.
(§3) Cell Viability Assay. All cell lines were purchased form ATCC (Manassas, VA), and they were routinely cultured in different media recommended by the supplier. MCF-7 cells were cultured in non-phenol red DMEM (Corning, Manassas, VA) fortified with 10% charcoal treated fetal bovine serum (FBS; Atlanta Biologicals, GA) and 0.2 mM glutamine (Corning, Manassas, VA), whereas MDA-MB-231, DU-145, and Vero were cultured in DMEM with 10% FBS. […] After 24 h incubation in 37 °C under 5% CO2, cells were treated with serially diluted ligands with final DMSO concentration of 1% and incubated for additional 72 h. MTS (CellTiter 96 Aqueous One Solution Cell Proliferation Assays, Promega, Madison, WI) was added to each well 2.5 h prior to recording the absorbance at 490 nm.

VERO = assay: as above; type: cell-based; conditions: Chlorocebus sabaeus, 72 h
Method: as §1, §2, §3

MCF-7 = assay: as above; type: cell-based; conditions: Homo sapiens, MCF7, 72 h
Method: as §1, §2, §3

[1] = system: HP1-mediated heterochromatin gene repression in CiA:Oct4 embryonic stem cells; assay: HP1-recruitment assay dose curve (CiA:Oct4, with CIP-rapamycin), flow cytometry; type: cell-based, mouse; conditions: 48 h with CIP-rapamycin recruitment of HP1; up to 10 µM
Text: To elucidate the effect of DFP-based KDM inhibitors on chromatin dynamics, we profiled them in an intracellular assay which measures heterochromatin formation speed. The chromatin in vivo assay (CiA) leverages chemical induced proximity (CIP) to recruit heterochromatin protein 1 (HP1) to a modified Oct4 locus. This reporter system is composed of tandem arrays of Gal4 and zinc finger DNA binding domains in the promoter of one allele of Oct4, where the gene was replaced by a nuclear eGFP reporter. Protein fusions of Gal4-FKBP and FRB-HP1 allow for direct chemical recruitment of HP1 to the CiA:Oct4 reporter locus upon addition of the chemical inducer of proximity (CIP)-rapamycin. After CIP-rapamycin addition, HP1 is recruited to the reporter locus and brings histone methyltransferase enzymes to the chromatin reporter resulting in the repressive H3K9me3 mark being deposited (Fig. 10A). H3K9me3 deposition is the signature mark of heterochromatin and is coupled with gene silencing and loss of GFP expression (Fig. 10B)[33]. Others have shown that H3K4me3 marked nucleosomes impede H3K9 methyltransferase activity. Thus, we postulate that the active H3K4me3 mark must be removed by KDM enzymes as part of the transformation from euchromatin to heterochromatin. Inhibition of KDMs, specifically those targeting H3K4me3, would result in a decrease in H3K9me3 accumulation, which would be measured in our assay as an increase in GFP positive cells.
To determine the effect of DFP-based KDM inhibitors on HP1-mediated gene repression, we treated CiA:Oct4 embryonic stem (ES) cells with doses of representative compounds ranging from 10 µM–250 nM for 48 h with CIP-rapamycin recruitment of HP1 (Fig. 10C). […] The percentage of GFP(+) cells was determined by flow cytometry as indicated in representative histograms (Supplemental Fig. S8).
Day 0, CiA:Oct4 N118/163 cells were grown in ES media and seeded at a density of 10,000 cells per well in 100 μL media (100,000 cells mL^−1) on gelatin coated 96 well plates. Day 1, culture media was aspirated and replaced with 100 µL ES media containing +/− 6 nM rapamycin. 10 µM, 5 µM, 2.5 µM, 1 µM, 500 nM, and 250 nM concentrations of compound or DMSO were added using a TTP Labtech Mosquito HTS liquid handler. Days 2, fresh ES media +/− rapamycin and compound were added as in Day 1. Day 3, cells were washed with PBS and trypsinized using 0.25% trypsin-EDTA. Trypsin was quenched with serum. Cells were resuspended by pipetting in preparation for flow cytometry analysis.
Flow cytometry data was acquired using the Intellicyt iQue Screener and analyzed with FlowJo software.
The CiA:Oct4 recruitment system in mouse embryonic stem cells contains Gal4 and Zinc finger DNA binding arrays and a downstream nuclear eGFP gene in place of a single Oct4 allele as previously described.^30 The CiA:Oct4 N118/N163 cell line containing viral integrations of N118 and N163 plasmids (N118- nLV EF-1α-Gal-FKBPx1-HA-PGK-Blast, N163- nLV EF-1α-HP1α (CS)-Frbx2(Frb+FrbWobb)-V5-PGK-Puro) was used for inhibition of HP1-mediated heterochromatin studies. All plasmids are freely available on addgene.
HP1-Recruitment Assay Dose Curve. Day 0, CiA:Oct4 N118/163 cells were grown in ES media and seeded at a density of 10,000 cells per well in 100 µL media (100,000 cells mL^-1) on gelatin coated 96 well plates. Day 1, culture media was aspirated and replaced with 100 µL ES media containing +/- 6 nM rapamycin. 10 µM, 5 µM, 2.5 µM, 1 µM, 500 nM, and 250 nM concentrations of compound or DMSO were added using a TTP Labtech Mosquito HTS liquid handler. Days 2, fresh ES media +/- rapamycin and compound were added as in Day 1. Day 3, cells were washed with PBS and trypsinized using 0.25% trypsin-EDTA. Trypsin was quenched with serum. Cells were resuspended by pipetting in preparation for flow cytometry analysis.
Flow Cytometry and Analysis.

KDM6A (UTX) = target: T1, KDM6A (UTX) (Homo sapiens, UniProt O15550); assay: KDM cell-free assay (AlphaScreen, BPS Bioscience); type: biochemical; conditions: for IC50: Fig. 9A, read-out: IC50 (KDM6A inhibition dose response curve)
T1 construct: purchased BPS Bioscience
T1 sequence (O15550 whole entry): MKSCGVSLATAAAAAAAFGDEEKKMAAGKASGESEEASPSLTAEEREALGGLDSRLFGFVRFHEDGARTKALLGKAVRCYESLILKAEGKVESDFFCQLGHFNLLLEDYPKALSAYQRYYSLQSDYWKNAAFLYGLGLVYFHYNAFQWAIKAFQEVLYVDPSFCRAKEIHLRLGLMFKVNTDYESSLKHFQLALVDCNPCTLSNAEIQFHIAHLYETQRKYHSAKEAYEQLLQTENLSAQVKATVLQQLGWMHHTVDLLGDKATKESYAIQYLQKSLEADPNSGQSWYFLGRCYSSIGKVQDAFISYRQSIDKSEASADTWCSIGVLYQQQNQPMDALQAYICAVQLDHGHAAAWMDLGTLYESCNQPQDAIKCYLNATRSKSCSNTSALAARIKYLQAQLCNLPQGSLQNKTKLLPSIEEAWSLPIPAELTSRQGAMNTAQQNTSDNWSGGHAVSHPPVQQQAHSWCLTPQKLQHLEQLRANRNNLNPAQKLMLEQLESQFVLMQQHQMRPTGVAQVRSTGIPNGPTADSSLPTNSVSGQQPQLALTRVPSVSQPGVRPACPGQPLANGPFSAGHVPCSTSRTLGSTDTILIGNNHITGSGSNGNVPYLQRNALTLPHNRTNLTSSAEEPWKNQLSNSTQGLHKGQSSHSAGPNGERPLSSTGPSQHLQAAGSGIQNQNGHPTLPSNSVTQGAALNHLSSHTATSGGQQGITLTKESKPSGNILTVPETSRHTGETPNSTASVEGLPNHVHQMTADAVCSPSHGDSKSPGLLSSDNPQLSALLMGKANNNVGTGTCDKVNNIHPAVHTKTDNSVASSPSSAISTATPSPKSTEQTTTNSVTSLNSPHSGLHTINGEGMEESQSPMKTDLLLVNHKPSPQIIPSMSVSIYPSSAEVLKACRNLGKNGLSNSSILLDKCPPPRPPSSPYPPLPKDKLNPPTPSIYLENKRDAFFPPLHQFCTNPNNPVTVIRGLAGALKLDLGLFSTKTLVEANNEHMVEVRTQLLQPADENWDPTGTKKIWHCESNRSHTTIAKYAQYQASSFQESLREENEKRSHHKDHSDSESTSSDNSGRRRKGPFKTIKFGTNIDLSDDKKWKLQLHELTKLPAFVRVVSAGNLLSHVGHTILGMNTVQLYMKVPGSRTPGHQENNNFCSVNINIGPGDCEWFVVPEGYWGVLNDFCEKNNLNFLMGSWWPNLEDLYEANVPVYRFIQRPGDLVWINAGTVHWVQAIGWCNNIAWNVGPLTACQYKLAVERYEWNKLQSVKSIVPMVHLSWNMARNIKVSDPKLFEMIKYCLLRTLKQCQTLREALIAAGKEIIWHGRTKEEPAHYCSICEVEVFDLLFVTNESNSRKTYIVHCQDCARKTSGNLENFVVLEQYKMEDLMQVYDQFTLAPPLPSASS

[2] = Table 5, values calculated by linear regression

Row | inhibition at 1 µM (KDM6A (UTX); Table 2) | inhibition at 10 µM (KDM6A (UTX); Table 2) | IC50 (MDA-MB-231; Table 5) | IC50 (MCF-7; Table 5) | SMILES | IC50 (VERO; Table 5) | other results
1 | 12% | 96% | – | – | Cc1c(O)c(=O)ccn1CCn1cc(-c2ccccc2)nn1 [1a] | – | IC50 (MDA-MB-231; Table 4): > 50 µM; IC50 (VERO; Table 4): > 100 µM; IC50 (MCF-7; Table 4): > 50 µM; inhibition of heterochromatin formation [1]: did not inhibit heterochromatin formation
2 | 12% | 100% | – | – | Cc1c(O)c(=O)ccn1CCCCCn1cc(-c2ccccc2)nn1 [1d] | – | IC50 (MDA-MB-231; Table 4): 11.4 µM; IC50 (VERO; Table 4): > 50 µM; IC50 (MCF-7; Table 4): > 50 µM; IC50 (KDM6A (UTX)): 3.3 µM
3 | 12% | 98% | – | – | Cc1c(O)c(=O)ccn1CCCCCCn1cc(-c2ccccc2)nn1 [1e] | – | IC50 (MDA-MB-231; Table 4): 12.5 µM; IC50 (VERO; Table 4): > 35 µM; IC50 (MCF-7; Table 4): > 50 µM
4 | 6% | 100% | 16.4 µM | – | Cc1ccccc1-c1cn(CCCCn2ccc(=O)c(O)c2C)nn1 [2a] | 11.6 µM | IC50 (MCF-7; [2]): 42.5 µM
5 | – | – | 12.7 µM | > 50 µM | Cc1ccccc1-c1cn(CCCCCn2ccc(=O)c(O)c2C)nn1 [2b] | 5.8 µM | –
6 | 4% | 100% | 10.9 µM | – | Cc1cccc(-c2cn(CCCCn3ccc(=O)c(O)c3C)nn2)c1 [2c] | 5.2 µM | IC50 (MCF-7; [2]): 62.7 µM
7 | – | – | 11.8 µM | > 50 µM | Cc1cccc(-c2cn(CCCCCn3ccc(=O)c(O)c3C)nn2)c1 [2d] | 3.6 µM | –
8 | 13% | 100% | 7.4 µM | > 50 µM | Cc1ccc(-c2cn(CCCCn3ccc(=O)c(O)c3C)nn2)cc1 [2e] | 4.1 µM | –
9 | – | – | 9.6 µM | – | COc1ccccc1-c1cn(CCCCn2ccc(=O)c(O)c2C)nn1 [2g] | > 50 µM | IC50 (MCF-7; [2]): 66.1 µM
10 | 3% | 99% | 19.1 µM | > 50 µM | COc1ccccc1-c1cn(CCCCCn2ccc(=O)c(O)c2C)nn1 [2h] | > 50 µM | –
11 | 7% | 100% | 7.5 µM | – | COc1cccc(-c2cn(CCCCn3ccc(=O)c(O)c3C)nn2)c1 [2i] | > 50 µM | IC50 (MCF-7; [2]): 54.8 µM
12 | – | – | 8.1 µM | > 50 µM | COc1ccc(-c2cn(CCCCn3ccc(=O)c(O)c3C)nn2)cc1 [2k] | > 50 µM | –
13 | 4% | 100% | 9.6 µM | > 50 µM | COc1ccc(-c2cn(CCCCCn3ccc(=O)c(O)c3C)nn2)cc1 [2l] | > 50 µM | –
14 | 16% | 100% | 18.3 µM | > 50 µM | Cc1c(O)c(=O)ccn1CCCCCn1cc(-c2ccccc2F)nn1 [2m] | 12.7 µM | –
15 | 5% | 100% | 6.8 µM | > 50 µM | Cc1c(O)c(=O)ccn1CCCCCn1cc(-c2cccc(F)c2)nn1 [2n] | 22.9 µM | –
16 | 10% | 100% | 3.6 µM | > 50 µM | Cc1c(O)c(=O)ccn1CCCCCn1cc(-c2ccc(F)cc2)nn1 [2o] | 38.8 µM | –
17 | 15% | 99% | 18.8 µM | > 50 µM | Cc1c(O)c(=O)ccn1CCCCCn1cc(-c2ccccc2C(F)(F)F)nn1 [2p] | 13.3 µM | –
18 | – | – | 9.5 µM | > 50 µM | Cc1c(O)c(=O)ccn1CCCCn1cc(-c2ccc(N(C)C)cc2)nn1 [2q] | > 50 µM | –
19 | – | – | 12.5 µM | > 50 µM | Cc1c(O)c(=O)ccn1CCCCCn1cc(-c2ccc(N(C)C)cc2)nn1 [2r] | > 50 µM | –
20 | 15% | 99% | > 50 µM | > 50 µM | Cc1c(O)c(=O)ccn1CCCCCn1cc(-c2ccccn2)nn1 [2s] | > 50 µM | –
21 | 15% | 99% | 1.7 µM | > 50 µM | Cc1c(O)c(=O)ccn1CCCCCCn1cc(-c2ccc(-c3ccncc3)cc2)nn1 [2u] | 66.9 µM | IC50 (KDM6A (UTX)): 5.1 µM
22 | – | – | – | – | Cc1c(O)c(=O)ccn1CCCCn1ccc(=O)c(O)c1C [3a] | – | IC50 (MDA-MB-231; Table 6): > 50 µM; IC50 (VERO; Table 6): > 50 µM; IC50 (MCF-7; Table 6): > 50 µM; inhibition at 1 µM (KDM6A (UTX); Table 3): 4%; inhibition at 10 µM (KDM6A (UTX); Table 3): 100%
23 | – | – | – | – | Cc1c(O)c(=O)ccn1CCCCCn1ccc(=O)c(O)c1C [3b] | – | IC50 (MDA-MB-231; Table 6): > 50 µM; IC50 (VERO; Table 6): > 50 µM; IC50 (MCF-7; Table 6): > 50 µM; inhibition at 1 µM (KDM6A (UTX); Table 3): 1%; inhibition at 10 µM (KDM6A (UTX); Table 3): 99%
24 | – | – | – | – | Cc1c(O)c(=O)ccn1CCCCCCn1ccc(=O)c(O)c1C [3c] | – | IC50 (MDA-MB-231; Table 6): > 50 µM; IC50 (VERO; Table 6): > 50 µM; IC50 (MCF-7; Table 6): > 50 µM; inhibition at 1 µM (KDM6A (UTX); Table 3): 2%; inhibition at 10 µM (KDM6A (UTX); Table 3): 100%
25 | – | – | – | – | Cc1c(O)c(=O)ccn1CCCCCCCn1ccc(=O)c(O)c1C [3d] | – | IC50 (MDA-MB-231; Table 6): > 50 µM; IC50 (VERO; Table 6): > 50 µM; IC50 (MCF-7; Table 6): > 50 µM; inhibition at 1 µM (KDM6A (UTX); Table 3): 3%; inhibition at 10 µM (KDM6A (UTX); Table 3): 100%
26 | – | – | – | – | Cc1c(O)c(=O)ccn1[C@H]1CC[C@H](n2ccc(=O)c(O)c2C)CC1 [3e] | – | IC50 (MDA-MB-231; Table 6): 36.9 µM; IC50 (VERO; Table 6): > 50 µM; IC50 (MCF-7; Table 6): > 50 µM; inhibition at 1 µM (KDM6A (UTX); Table 3): 5%; inhibition at 10 µM (KDM6A (UTX); Table 3): 100%
27 | – | – | – | – | Cc1c(O)c(=O)ccn1Cc1ccc(Cn2ccc(=O)c(O)c2C)cc1 [3f] | – | IC50 (MDA-MB-231; Table 6): 25 µM; IC50 (VERO; Table 6): > 50 µM; IC50 (MCF-7; Table 6, values calculated by linear regression): 378 µM; inhibition at 1 µM (KDM6A (UTX); Table 3): 5%; inhibition at 10 µM (KDM6A (UTX); Table 3): 100%

— publication PMC6423038, “Deferiprone: Pan-selective Histone Lysine Demethylase Inhibition Activity and Structure Activity Relationship Study” (Scientific Reports, 2019)
